A short description of data set [1]: organ accumulation of particles in 4T1 tumor-bearing mouse (IVIS). It counts as in vivo, BALB/c mouse. As to conditions: intravenous, lipid 800 nmol, 24 hr after administration, DiR fluorescence. The protocol: As cationic lipid, B-2 and B-2-5 were used. As conventional lipid, DODAP and EPC were used. The preparation methods of the O/W type emulsion and particle suspensions (DODAP, EPC) followed the methods described in Example 1 and Comparative Example 1. To visualize pharmacokinetics of the oil droplets constituting the O/W type emulsion or particle suspension (DODAP, EPC), fluorescent dye DiR was added by 0.2 mol % of the lipid. The particle concentration was adjusted to 4 mM as a lipid concentration.
As a tumor-bearing mouse, 4T1 cell (mouse breast cancer) was used. 1×10^6 4T1 cells were subcutaneously transplanted to the right flank of BALB/c mouse (♀, 4-week-old). At 7 days from the transplantation, 200 μL (lipid 800 nmol) of the O/W type emulsion or particle suspension (DODAP, EPC) containing fluorescence-modified particles was intravenously administered. At 24 hr after administration, […] was performed, and the spleen, liver and tumor were collected and image was obtained by IVIS. The average fluorescence intensity was calculated using Living Image Software.
As a cationic lipid, B-2 was used. An O/W type emulsion was prepared according to Example 3. In this preparation, 4-Methylumbelliferon (10 mol %) was used as a model drug and DMG-PEG2000 (10 mol %) and DSG-PEG2000 (2.5 mol %) were used as PEG lipids, and a 4.0 mM (based on lipid concentration) emulsion was prepared. To visualize pharmacokinetics of the oil droplets constituting the O/W type emulsion or particle suspension (DODAP, EPC), fluorescent dye DiR was added by 0.2 mol % of the lipid. As the salt (NaCl) concentration during preparation of particles, 30 mM, 150 mM, 750 mM were selected and taken as “Small”, “Medium”, “Large”, respectively. The particle concentration was adjusted to 4 mM as a lipid concentration.
The organ distribution in a tumor-bearing mouse was evaluated in the same manner as in Experimental Example 1. As a result, accumulation in the spleen, liver decreased as the particle size became smaller.

Data set [2] in a line: particle size distribution by dynamic light scattering (Zetasizer Nano ZS). It counts as physicochemical. As to the method: The particle size distribution of the prepared emulsion was measured by dynamic light scattering using Zetasizer Nano ZS. The measurement conditions were 1 mM emulsion (40 μL) at 25° C. As a result, in all compositions, the volume median diameter was not more than 100 nm and, when a linear head was used (i.e., the formula (I) wherein X^a and X^b are each X^1), the particle size was not more than 50 nm. The drug recovery rate was not less than 85% (FIG. 1, Table 2).
EPC and Cholesterol were mixed to achieve 1000 nmol and a PEG lipid was added. Chloroform in an amount equal to that of the lipid ethanol solution was added and the mixture was dried under a nitrogen blow. PBS (1 mL) was added to the lipid membrane after drying and the mixture was stood for 10 min and sonicated by a bath-type sonicator for 3 min to give a particle suspension. The particle size distribution of the prepared particles was measured by dynamic light scattering in the same manner as in Example 1.
The particle size distribution of the produced emulsion solution was measured by dynamic light scattering similarly to Example 1. As a result, when DOPC was used, the volume median diameter was near 40 nm irrespective of pH.
An ethanol solution containing 500 nmol as a total of cationic B-2, DOPE, and Cholesterol was prepared, and a PEG lipid was added in the above-mentioned amount. Ethanol was added to make the total amount 200 μL, and the mixture was stood at ice temperature for 15 min. A similarly ice-cooled malic acid buffer (20 mM, pH 3.0, 0-1000 mM NaCl) (200 μL) was mixed within 3 sec under vortex. PBS (NISSUI) (3600 μL) was immediately added thereto. The mixture was subjected to ultrafiltration using Amicon Ultra (Millipore). The centrifugation conditions were 1000 G, 25° C. An operation including addition of 3200 μL of PBS after centrifugation for 10 min was repeated twice and the sample was concentrated to about 500 μL. The concentrate was diluted with PBS to a mass of 1000 mg to give a 0.5 mM (lipid concentration) emulsion. The particle size distribution of the produced emulsion solution was measured by dynamic light scattering similarly to Example 1.
The volume median diameter and the surface potential were measured using the dynamic light scattering (Zetasizer Nano; Malvern) in the same manner as in Example 1.
The average particle size of the produced particles was measured in the same manner as in Example 1 and the results are shown in Table 7.

Data set [3] can be described thus: DexPal-carrying rate by high performance liquid chromatography. The note with it: DexPal-carrying LNP. The format is physicochemical. The protocol:
1 mM DexPal-carrying LNP (50 μL) was mixed with phosphate buffer (pH 7.4) (50 μL), and 50 μL thereof was mixed with MeOH (50 μL). 0.1% Trifluoroacetic acid/acetonitrile (400 μL) was added, and DexPal was detected by high performance liquid chromatography (column: InertSustain C18, 5 μm, 4.6 mm×250 mm (GL Sciences Inc.), mobile phase: MeOH:0.1% trifluoroacetic acid/acetonitrile=70:30, flow rate: 1 mL/min, detector: 240 nm, injection volume: 200 μL). As the analytical curve of Dex-Pal, 0.5 mM, 0.25 mM, 0.125 mM, 0.0625 mM, DexPalethanol solution (50 μL) was mixed with MeOH (50 μL), and 50 μL thereof was mixed with phosphate buffer (pH 7.4) (50 μL). 0.1% Trifluoroacetic acid/acetonitrile (400 μL) was added, and DexPal was detected by a method similar to that for DexPal-carrying LNP. The peak area and concentration were plotted, and the DexPal concentration and carrying rate in the DexPal-carrying LNP were calculated.

A short description of data set [4]: drug release and reduction responsibility test (dialysis, with or without 10 mM glutathione). The format is physicochemical. The protocol: Using B-2, B-2-5, O-C3M, B-2-3, TS-P4C2 or L-PZ4C2 as a cationic lipid, an O/W type emulsion having a composition of cationic lipid:DOPC:Cholesterol=3:4:3 (molar ratio) was prepared. In this preparation, DSG-PEG2000 (9 mol %) was used as a PEG lipid. As a drug model molecule, 4-Methylumbelliferon Palmitate (30 mol %) was used and fluorescent probe DiD (1 mol %) was used for calibration by particles concentration.
An ethanol solution containing 1000 nmol as a total of cationic lipid, DOPE, and Cholesterol was prepared, and PEG lipid, drug model molecule and fluorescent probe were added in the above-mentioned amounts. Ethanol was added to make the total amount 400 μL, and the mixture was stood at 37° C. for 15 min. A similarly heated malic acid buffer (20 mM, pH 3.0, 30 mM NaCl) (400 μL) was mixed within 3 sec under vortex. PBS (NISSUI) (3200 μL) was immediately added thereto. The mixture was subjected to ultrafiltration using Amicon Ultra (Millipore) The centrifugation conditions were 1000 g, 25° C. […]
400 μL of the prepared emulsion was placed in a dialysis membrane (Spectrum Lab) having a molecular weight cutoff of 1000 and dialyzed against 40 mL of PBS at 37° C. […] After penetration and stirring at 60° C. for 30 min, the amounts of 4MU and DiD in the solution were quantified by fluorescence measurement (4MU: Ex385, Em450 DiD: Ex645, Em665). […]

Setting [5] is: O/W emulsion cationic lipid:DOPE:Cholesterol=3:4:3, 4-Methylumbelliferon 10 mol %, DMG-PEG2000 10 mol %, DSG-PEG2000 2.5 mol %.
[6] abbreviates: O/W emulsion cationic lipid:DOPE:Cholesterol=3:4:3, 4-Methylumbelliferon 10 mol %, DMG-PEG2000 10 mol %, DSG-PEG2000 2.5 mol %, 1 mM, 25° C.
Where [7] appears, read: DexPal-carrying particles (lipid, DOPC, Chol, DMG-PEG2000, DSG-PEG2000, DexPal).
Setting [8] is: B-2:helper lipid:Cholesterol=3:4:3, 15 mol % DMG-PEG2000, malic acid buffer pH 4.0.
Setting [9] is: B-2:helper lipid:Cholesterol=3:4:3, 15 mol % DMG-PEG2000, pH 3.0.
The mark [10] stands for this setting: B-2:helper lipid:Cholesterol=3:4:3, 15 mol % DMG-PEG2000, pH 4.0.

Molecules are shown by their SMILES. “Also recorded” adds a separate entry of the source.

As for `Cc1c(C)c2c(c(C)c1OC(=O)CCC(=O)OCCCN(C)CCSSCCN(C)CCCOC(=O)CCC(=O)Oc1c(C)c(C)c3c(c1C)CCC(C)(CCCC(C)CCCC(C)CCCC(C)C)O3)CCC(C)(CCCC(C)CCCC(C)CCCC(C)C)O2` (centres unmarked) [B-2-5], in data set [1], the “accumulation in the liver” value was “superior in accumulation in the liver; also recorded: found”. Moreover, the PdI in data set [2] (setting [5]) amounted to 0.164. Also, the volume median diameter in data set [2] (setting [6]) turned out to be 41.2 nm.

For the molecule `CCCCCCCCCCCCCC(=O)OCCCN(C)CCSSCCN(C)CCCOC(=O)CCCCCCCCCCCCC` [B-2], the transfer into tumor entry in data set [1] is “transfer well into tumor”. Also, the volume median diameter was 30-50 nm in data set [2] (B-2:DOPE:Cholesterol=3:4:3, 15 mol % DMG-PEG2000, NaCl concentration of 60 mM or below at preparation); no more than 100 nm in data set [2] (B-2:DOPE:Cholesterol=3:4:3, 15 mol % DMG-PEG2000, salt concentration of 500 mM or below at preparation); 41.4 ± 0.7 nm·days in data set [2] (setting [7]); 37.6 nm in data set [2] (setting [6]). The figures for the PdI in data set [2] (DexPal-carrying particles) and in data set [2] (setting [5]) were 0.15 ± 0.01 and 0.465, respectively. Further, the carrying rate in data set [3] came out at 90.6 ± 5.2%.

In the case of `CCCCCCCC/C=C\CCCCCCCC(=O)OCC(CN(C)C)OC(=O)CCCCCCC/C=C\CCCCCCCC` (centres unmarked) [DODAP], the transfer into tumor entry in data set [1] is “transfer well into tumor”. In addition, the results for the PdI in data set [2] (DexPal-carrying particles) and in data set [2] (particle suspension of conventional lipid (DODAP:DOPE:Cholesterol=3:4:3 or EPC:Cholesterol=3:2)) were 0.15 ± 0.01 and 0.418, respectively. Also, the volume median diameter in data set [2] (setting [7]) turned out to be 39.1 ± 2.2 nm·days; in data set [2] (particle suspension of conventional lipid (DODAP:DOPE:Cholesterol=3:4:3 or EPC:Cholesterol=3:2), 4-Methylumbelliferon 10 mol %), 34.8 nm. For the same molecule, the “release of drug model substance” value in data set [4] (conventional lipid particle suspension, 24 hr, under any conditions (reduction or nonreduction)) was “hardly released”. The responsiveness under reduction result in data set [4] (conventional lipid:DOPC:Cholesterol=3:4:3 particle suspension, 4-Methylumbelliferon Palmitate 30 mol %) was “not found”. For the same molecule, the carrying rate in data set [3] was found to be 89.6 ± 2.9%.

On to `CCCCCCCC/C=C\CCCCCCCC(=O)OC[C@H](COP(=O)([O-])OCC[N+](C)(C)C)OC(=O)CCCCCCC/C=C\CCCCCCCC` [DOPC, dioleoylphosphatidylcholine], for which the volume median diameter is recorded as 41.5 nm in data set [2] (B-2:helper lipid:Cholesterol=3:4:3, 15 mol % DMG-PEG2000, malic acid buffer pH 3.0); 40.5 nm in data set [2] (setting [8]); 45.6 nm in data set [2] (B-2:helper lipid:Cholesterol=3:4:3, 15 mol % DMG-PEG2000, malic acid buffer pH 5.0); “about 40 nm” in data set [2] (B-2:helper lipid:Cholesterol=3:4:3, irrespective of pH (3.0-5.0)). The PdI in data set [2] (setting [9]) was 0.319; in data set [2] (setting [10]) it was 0.214; in data set [2] (B-2:helper lipid:Cholesterol=3:4:3, 15 mol % DMG-PEG2000, pH 5.0), 0.196.

Consider `CCCCCCCC/C=C\CCCCCCCC(=O)OC[C@H](COP(=O)(O)OCCN)OC(=O)CCCCCCC/C=C\CCCCCCCC` [DOPE, dioleoylphosphatidylethanolamine], for which the volume median diameter in data set [2] (setting [8]) stood at 90.2 nm. In addition, the PdI in data set [2] (setting [9]) is 0.191; in data set [2] (setting [10]) it was 0.078.

As for `CCCCC/C=C\C/C=C\CCCCCCCC(=O)OCCN1CCN(CCSSCCN2CCN(CCOC(=O)CCCCCCC/C=C\C/C=C\CCCCC)CC2)CC1` [L-PZ4C2], the PdI in data set [2] (setting [5]) turned out to be 0.092. Besides, in data set [2] (setting [6]), the volume median diameter is listed as 75.8 nm.

As for `CCCCCCCC/C=C\CCCCCCCC(=O)OCCCN(C)CCSSCCN(C)CCCOC(=O)CCCCCCC/C=C\CCCCCCCC` [O-C3M], the PdI in data set [2] (setting [5]) amounted to 0.228. Moreover, in data set [2] (setting [6]), the volume median diameter was found to be 38.4 nm.

As for `Cc1c(C)c2c(c(C)c1OC(=O)CCC(=O)OCCC1CCN(CCSSCCN3CCC(CCOC(=O)CCC(=O)Oc4c(C)c(C)c5c(c4C)CCC(C)(CCCC(C)CCCC(C)CCCC(C)C)O5)CC3)CC1)CCC(C)(CCCC(C)CCCC(C)CCCC(C)C)O2` (centres unmarked) [TS-P4C2], the PdI in data set [2] (setting [5]) worked out at 0.063. In addition, in data set [2] (setting [6]), the volume median diameter came to 87.9 nm.

For the origin of these results see US11395798B2, “O/W type emulsion” (NOF CORPORATION, priority 2015, dated 2022).
